Source: paper PMC4778863, “A Four-Point Screening Method for Assessing Molecular Mechanism of Action (MMOA) Identifies Tideglusib as a Time-Dependent Inhibitor of Trypanosoma brucei GSK3β” (PLoS Neglected Tropical Diseases, 2016)
Like-named read-outs stand apart in the source and are kept apart here.

Experiments:
[1] = molecular target: T1, TbGSK3β (Trypanosoma brucei brucei, UniProt Q388M1); assay: biochemical; format: biochemical; settings: for Ratio Preinc/no preinc: % inhibition at 30 min preincubation / % inhibition at 0 min preincubation at 10 μM ATP; for ATP competition following preincubation / ATP competition without preincubation: 10 μM versus 100 μM ATP; for ATP competition following preincubation: 30 min preincubation; for time dependence: effect of 30 min preincubation on TbGSK3β activity: four point MMOA assay, 10 μM and 100 μM ATP
T1 construct: Full-length TbGSK3β (Gene DB ID Tb927.10.13780); 6X His (C); made in house; host or cells: BL21 (DE3) E. coli
T1 sequence (Q388M1 1-352): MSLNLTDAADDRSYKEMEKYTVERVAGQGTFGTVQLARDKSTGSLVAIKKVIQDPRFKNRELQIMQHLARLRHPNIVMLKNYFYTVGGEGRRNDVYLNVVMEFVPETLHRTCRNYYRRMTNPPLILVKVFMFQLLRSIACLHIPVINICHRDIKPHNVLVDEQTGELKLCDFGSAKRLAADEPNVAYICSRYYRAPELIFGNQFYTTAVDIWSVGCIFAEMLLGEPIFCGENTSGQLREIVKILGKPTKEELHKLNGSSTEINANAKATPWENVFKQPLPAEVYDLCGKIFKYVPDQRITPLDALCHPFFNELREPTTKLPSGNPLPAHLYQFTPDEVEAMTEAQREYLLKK
Protocol: TbGSK3β activity was measured by following the ADP formation associated with the phosphorylation of GSM peptide and detected with ADP-Glo at 23°C. The enzyme reaction was conducted in a volume of 20 μL in a buffer containing 20 mM NaCl, 15 mM HEPES pH 7.4, 1 mM EGTA, 10 mM MgCl2, 0.02% Tween. These assays contained GSM at 10μM (approximating Km) or 80 μM (approximating Vmax). ATP was added at 10 μM and 100 μM to approximate Km and Vmax, respectively.
All reactions were incubated for 5 minutes in microcentrifuge tubes, and reactions were terminated at 80°C for 4 min. Of 20 μL reactions, 17.5 μL were transferred into 384 well-plates. Promega ADP-Glo procedures were carried out and phosphorylation measured by Luminoskan Ascent (Thermo Labsystems, Waltham MA). For pre-incubation experiments, TbGSK3β was preincubated at room temperature with inhibitor, GSM and buffer for 30 min. Inhibitors were added in DMSO to a final concentration of DMSO in the reactions of <5%. The kinase reaction was then started by adding ATP. For non-preincubation reactions, the kinase reactions were started by adding TbGSK3β to a mixture containing inhibitor, ATP, GSM and buffer. DMSO was added to all control reactions.
IC50 for inhibition TbGSK3β was determined as a function of preincubation time (Fig 3). Preincubated reactions were preincubated with inhibitor, TbGSK3β, GSM peptide, and buffer at room temperature; after 30 minutes reactions were initiated with the addition of ATP. Reactions with 0 min preincubation were initiated with the addition of TbGSK3β. Reactions were run for 5 min at room temperature, and stopped at 80°C. ADP product formation was measured by ADP-Glo kit.
Preincubated reactions were preincubated with inhibitor, TbGSK3β, GSM peptide, and buffer at room temperature; after 30 minutes reactions were initiated with the addition of ATP. Reactions with 0 min preincubation were initiated with the addition of TbGSK3β. Reactions were run for 5 min at room temperature, and stopped heat at 80°C, followed by ice bath, and ADP product formation was measured by ADP-Glo kit. All concentrations of tideglusib and controls with and without TbGSK3β were kept at 1% DMSO. Black = 30 minute preincubation Grey = 0 minute preincubation.
Time dependent inhibition was evaluated by preincubation of TbGSK3β with 60 nM tideglusib and 6 nM GW-8510 with 10μM and 100μM ATP. […] (B). […] All reactions preincubated or not preincubated with TbGSK3β for 30 min at room temperature. Experiments run with 10μM GSM peptide, 10μM ATP, and buffer. Minute preincubation (30 min) was preincubated with inhibitor, TbGSK3β, GSM peptide, and buffer. ATP was mixed to initiate reaction. No preincubation contained inhibitor, GSM peptide, ATP, and buffer. The reaction was initiated with TbGSK3β. Reactions were run at room temperature for 5 min and stopped at 80°C. ADP formed was measured by ADP-Glo kit. Values are mean +/- standard error. N = 3 for each experiment and experiments were run in duplicates. Control reactions contained DMSO and background was determined using a zero time incubation and subtracted from all reactions. Black = 30 min preincubation Grey = No preincubation.

[2] = molecular target: T1, TbGSK3β; assay: Irreversibility: TbGSK3β activity following 100-fold dilution; format: biochemical; settings: 100 nM inhibitor preincubated 30 min with 50 nM TbGSK3β, diluted 100 fold into 100 μM ATP, 80 μM GSM; up to 2 hr
Protocol: Tideglusib and GW8510 were evaluated for irreversibility by measuring the TbGSK3β activity following a 100-fold dilution with reaction buffer. In these experiments tideglusib and GW8510 [100 nM] were preincubated with 50 nM TbGSK3β for 30 min at which time the reaction was diluted 100 fold into a solution containing 100 μM ATP and 80 μM GSM. The activity was then measured for up to two hours (Fig 6). […] The final concentration of tideglusib and GW8510 following dilution was 1 nM.
Tideglusib [100 nM, GW8510 [100 nM] and DMSO were preincubated with 50 nM TbGSK3 for 30 min. After a 100 fold dilution activity was measured and compared to DMSO containing reaction. Data expressed percent inhibition of DMSO activity. Data represent the average of two separate experiments for GW8510 and three for tideglusib. All points in each experiment were run in duplicate.

[3] = test system: T. brucei brucei strain 427; settings: cited from earlier work
[4] = cited from earlier work
[5] = test system: human GSK3β; set-up: method as in PMID 22102280; settings: following preincubation; read-out: IC50 against human GSK3β; cited from earlier work
[6] = test system: Trypanosomes; assay: Trypanosome viability after short term (6 hour) exposure and wash-out; format: cell-based, Trypanosoma brucei; settings: for trypanosome proliferation/viability after removal of drug following 6 hour exposure: drug-free medium, monitored for 44 hours
Protocol: The effect of tideglusib on trypanosome viability after short term exposure was evaluated to determine if the molecule is cidal or cytostatic.
Fig 9 Trypanosome viability after short term exposure with tideglusib. Trypanosomes (5 x 10^5/mL in HMI-9 medium) were treated with pentamidine (or water solvent control) or tideglusib (5 μM, 10 μM, or DMSO solvent control) for 6 hours (37°C, 5% CO2) and then cultured in drug-free treatment as detailed in panel (A). Trypanosome densities were determined after 6 hour treatment (B), and the drugs washed from the cells by centrifugation and resuspension in fresh medium (to a density of 0.5 x 10^5/mL). Trypanosome proliferation in the fresh medium was monitored for 44 hours (37°C, 5% CO2) (C). Error between four separate cultures are shown.

[7] = set-up: method as in PMID 19523516; settings: mice; oral administration; cited from earlier work
[8] = test system: Bloodstream form Trypanosoma brucei; assay: Parasite assay: trypanosome proliferation, 48 hours, Coulter Counter; format: cell-based, strain CA427; settings: read-out: GI50 (concentration at which trypanosome proliferation was inhibited by 50%)
[9] = substrate: CC(C)C[C@H](NC(=O)[C@H](CO)NC(=O)[C@@H]1CCCN1C(=O)[C@H](CO)NC(=O)[C@@H]1CCCN1C(=O)[C@@H]1CCCN1C(=O)[C@@H](NC(=O)[C@H](CO)NC(=O)[C@H](C)NC(=O)[C@@H]1CCCN1C(=O)[C@H](CCCNC(=N)N)NC(=O)[C@H](CCCNC(=N)N)NC(=O)[C@@H](N)CCCNC(=N)N)C(C)C)C(=O)N[C@@H](CO)C(=O)N[C@@H](CCCNC(=N)N)C(=O)N[C@@H](Cc1c[nH]cn1)C(=O)N[C@@H](CO)C(=O)N[C@@H](COP(=O)(O)O)C(=O)N[C@@H](Cc1c[nH]cn1)C(=O)N[C@@H](CCC(N)=O)C(=O)N[C@@H](CCCNC(=N)N)C(=O)N[C@@H](CCCNC(=N)N)C(=O)O; assay: purified protein, by the assay type; format: biochemical; settings: other: substrate versus rate plots (Fig 2); pH 7.4
[10] = IC50, 10 μM ATP and 10 μM GSM, ± standard deviation, n = 3
[11] = 10 μM ATP and 10 μM GSM, ± standard deviation, n = 3, read-out: IC50
[12] = IC50 for inhibition TbGSK3β, non-preincubated reactions, 0 min preincubation, 10 μM GSM, 10 μM ATP, kinase 10 nM
[13] = IC50 for inhibition TbGSK3β, preincubated reactions, 30 min preincubation with inhibitor, TbGSK3β, GSM, 10 μM GSM, 10 μM ATP, kinase 10 nM

Nc1ncnc2c1ncn2[C@@H]1O[C@H](COP(=O)(O)OP(=O)(O)OP(=O)(O)O)[C@@H](O)[C@H]1O [ATP]
Km ([1]; substrate versus rate plots (Fig 2)): 21 µM

Cc1cc(Nc2nc(N[C@@H](C)c3ccc(F)cc3)c(C#N)cc2F)n[nH]1 [AZ960]
IC50 [1, 10]: 4100 ± 1270 nM

Cc1c[nH]c(-c2cnc(NCCNc3ccc(C#N)cn3)nc2-c2ccc(Cl)cc2Cl)n1 [CT99021]
IC50 [1, 11]: 200 ± 80 nM
Ratio Preinc/no preinc [1]: 0.97

O=C1Nc2ccc3ncsc3c2/C1=C/Nc1ccc(S(=O)(=O)Nc2ccccn2)cc1 [GW8510]
enzyme activity following 100-fold dilution (reversibility) [2]: enzyme activity was recovered
percent inhibition of activity at lower ATP ([1]; 10 μM ATP, irrespective of preincubation time, four point MMOA assay (Fig 4)): 67%
ATP competition following preincubation [1]: competitive
ATP competition without preincubation ([1]; no preincubation): competed with ATP
percent inhibition of activity at higher ATP ([1]; 100 μM ATP, irrespective of preincubation time, four point MMOA assay (Fig 4)): 28%
IC50 [1, 12]: 15.1 nM
IC50 [1, 13]: 14.5 nM
time dependence: effect of 30 min preincubation on TbGSK3β activity [1]: no effect
EC50 ([3]; 48 hr, read-out: EC50 in parasite growth assay): 119 nM
EC50 ([3]; read-out: cellular activity against T. brucei): 120 nM

Cc1cc(Nc2cc(CN3CCOCC3)c3nc(C)c(Cc4ccc(Cl)cc4F)n3n2)n[nH]1 [LY278544]
IC50 [1, 11]: 500 ± 120 nM
Ratio Preinc/no preinc [1]: 0.83

Nc1cccc(-c2cc3c(Oc4cccc(O)c4)ncnc3[nH]2)c1 [TWS119]
IC50 [1, 11]: 600 ± 140 nM
Ratio Preinc/no preinc [1]: 1

O=c1sn(-c2cccc3ccccc23)c(=O)n1Cc1ccccc1 [Tideglusib]
ATP competition following preincubation [1]: non-competitive behavior
ATP competition without preincubation ([1]; no preincubation): competed with ATP
IC50 [1, 13]: 43 nM
time dependence: effect of 30 min preincubation on TbGSK3β activity [1]: decreased the enzyme activity following preincubation
tolerability in phase II studies ([4]; Alzheimer's disease and progressive supranuclear palsy): well-tolerated
tolerability in clinical trial ([4]; escalating doses of up to 1000 mg/day, 30 Alzheimer's patients, 6 weeks): generally well tolerated
trypanosome growth during 6 hour treatment ([6]; 5 or 10 μM, high trypanosome density 5 x 10^5/mL): markedly slowed trypanosome growth
cidal or cytostatic ([6]; high trypanosome cell densities): cytostatic
Blood levels (molar) [7]: ~6.7 µM
GI50 [8]: 2300 nM

N=C(N)c1ccc(OCCCCCOc2ccc(C(=N)N)cc2)cc1 [pentamidine]
trypanosome proliferation/viability after removal of drug following 6 hour exposure [6]: killed all observed trypanosomes

B1: TbGSK3β (Trypanosoma brucei brucei TREU927) (protein)
chain: MSLNLTDAADDRSYKEMEKYTVERVAGQGTFGTVQLARDKSTGSLVAIKKVIQDPRFKNRELQIMQHLARLRHPNIVMLKNYFYTVGGEGRRNDVYLNVVMEFVPETLHRTCRNYYRRMTNPPLILVKVFMFQLLRSIACLHIPVINICHRDIKPHNVLVDEQTGELKLCDFGSAKRLAADEPNVAYICSRYYRAPELIFGNQFYTTAVDIWSVGCIFAEMLLGEPIFCGENTSGQLREIVKILGKPTKEELHKLNGSSTEINANAKATPWENVFKQPLPAEVYDLCGKIFKYVPDQRITPLDALCHPFFNELREPTTKLPSGNPLPAHLYQFTPDEVEAMTEAQREYLLKK
notes: Full-length TbGSK3β (Gene DB ID Tb927.10.13780); 6X His (C); made in house; host or cells: BL21 (DE3) E. coli
Km [9]: 23 µM
